The results in this text go back to ChEMBL document CHEMBL4732171 (J Med Chem, 2021).

The structures appear in SMILES notation. pKi: −log10 of the molar value. The source made the active and inactive calls. The rule behind the calls is not given here.

Assay [1] deals with Carbonic anhydrase 9 (Homo sapiens) (UniProt Q16790). The conditions noted are these: T47D, dose 50.0 nM.
Assay [2] shares this target. The conditions noted are these: UFH-001, dose 50.0 nM.
The target in the next assay is Carbonic anhydrase 3 (Homo sapiens, UniProt P07451).
In assay [3] the target is Carbonic anhydrase 2 (Homo sapiens) (UniProt P00918). Description: Binding affinity to human full length CAH2 expressed in Escherichia coli BL21 (DE3) assessed as binding concentration causing thermal stabilization by Sypro-Orange dye based DSF assay.

Carbonic anhydrase 3, sequence (P07451 whole entry): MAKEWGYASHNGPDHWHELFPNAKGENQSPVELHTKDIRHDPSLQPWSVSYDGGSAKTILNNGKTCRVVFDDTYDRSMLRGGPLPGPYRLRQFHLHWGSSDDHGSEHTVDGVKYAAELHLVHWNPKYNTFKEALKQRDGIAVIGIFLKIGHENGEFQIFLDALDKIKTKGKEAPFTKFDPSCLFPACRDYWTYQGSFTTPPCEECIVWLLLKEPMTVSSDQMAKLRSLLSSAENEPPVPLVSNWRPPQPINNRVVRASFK

For the compound `CCOc1ccc2nc(S(N)(=O)=O)sc2c1`, the inhibition entry in assay [1] and in assay [2] was “Active” each time.

What is called pKi is the negative decadic logarithm of the Ki, by convention in mol/L. A high value points to a low Ki. For the compound `NS(=O)(=O)c1ccc(N2CCN(c3ccc(F)cc3F)C2=O)cc1`, on Carbonic anhydrase 3, the negative-log Ki (pKi) was below 5.00. For the same compound, the Activity in assay [3] worked out at 0.1 mM.
